Reference: US6300499A, “α1-adrenergic receptor antagonists” (Societe de Conseils de Recherches et d'Applications …, priority 1998, dated 2001)
pKi: −log10 of the molar value.

These compounds were tested against α1-adrenergic receptor (assay: Test of the bond to the α1-adrenergic receptor (inhibition of [3H]prazosin bond to rat cerebral cortex)). Conditions: [3H]prazosin 0.2 nM, rat cerebral cortex membranes, 30 min, 25° C., pH 7.7.
Assay type: binding, rat (male Sprague Dawley)
Procedure: The cerebral cortices of male Sprague Dawley rats are homogenized at 4° C. in Tris-HCl 50 mM pH=7.7 and centrifuged at 50,000 g for 30 minutes at 4° C. The pellets are again suspended in the same buffer and centrifuged again at 50,000 g for 30 minutes at 4° C.
The filters are rinsed three times with the same buffer at 0-4° C. and their radioactivity is tested by liquid scintillation spectrometry.
The specific bonds are obtained by subtracting the non-specific bonds (determined in the presence of 10 μM of phentolamine (Sigma Chemical Co. St. Louis Mo.)) from the total bonds. The data relative to the bonds is analyzed by computer assisted iterative non-linear regression analysis, using the Ligand program (Munson, P. J., Rodbard, D. Anal. Biochem. 107:220 (1980)).

Structure (SMILES)	pKi
O=C(NCCCN1CCN(c2ccccc2C(O)C2CC2)CC1)C(c1ccccc1)c1ccccc1 (racemic) [Compound 55, (±)-N-[3-{4-(2-(cyclopropylhydroxymethyl)-phenyl)-1-piperazinyl}-propyl]-α-phenyl-benzeneacetamide]	6.52
Cc1ccc(C)c(N2CCN(CCCNC(=O)C(C)(OCc3ccccc3)c3ccccc3)CC2)c1 (racemic) [Compound 52, (±)-N-[3-{4-(2,5-dimethylphenyl)-1-piperazinyl}-propyl]-α-benzyloxy-α-methyl-benzeneacetamide]	7.29
Cc1ccc(C)c(N2CCN(CCCNC(=O)C(C)(O)c3cccc(Cl)c3)CC2)c1 (racemic) [Compound 31, (±)-3-chloro-N-[3-{4-(2,5-dimethylphenyl)-1-piperazinyl}-propyl]-α-hydroxy-α-methyl-benzeneacetamide]	7.37
Cc1ccc(N2CCN(CCCNC(=O)C(O)(c3ccccc3)c3ccccc3)CC2)c(C)c1 [Compound 5, N-[3-{4-(2,4-dimethylphenyl)-1-piperazinyl}-propyl]-α-hydroxy-α-phenyl-benzeneacetamide]	7.22
Cc1ccc(C)c(N2CCN(CCCN(C)C(=O)C(c3ccccc3)c3ccccc3)CC2)c1 [Compound 35, N-[3-{4-(2,5-dimethylphenyl)-1piperazinyl}-propyl]-N-methyl-α-phenyl-benzeneacetamide]	7.05
Cc1cccc(C)c1N1CCN(CCCNC(=O)C(O)(c2ccccc2)c2ccccc2)CC1 [Compound 6, N-[3-{4-(2,6-dimethylphenyl)-1-piperazinyl}-propyl]-a-hydroxy-a-phenyl-benzeneacetamide]	6.32
COc1ccccc1N1CCN(CCCNC(=O)C(O)c2ccccc2)CC1 (racemic) [Compound 19, (±)-α-hydroxy-N-[3-{4-(2-methoxyphenyl)-1-piperazinyl}-propyl]-benzeneacetamide]	7.22
Cc1ccc(N2CCN(CCCNC(=O)C(O)(c3ccccc3)c3ccccc3)CC2)cc1 [Compound 3, α-hydroxy-N-[3-{4-(4-methylphenyl)-1-piperazinyl}-propyl]-α-phenyl-benzeneacetamide]	7.22
Cc1cccc(N2CCN(CCCNC(=O)C(O)(c3ccccc3)c3ccccc3)CC2)c1C [Compound 4, N-[3-{4-(2,3-dimethylphenyl)-1-piperazinyl}-propyl]-α-hydroxy-α-phenyl-benzeneacetamide]	7.18
Cc1cccc(N2CCN(CCCNC(=O)C(O)(c3ccccc3)c3ccccc3)CC2)c1 [Compound 1, α-hydroxy-N-[3-{4-(3-methylphenyl)-1-piperazinyl}-propyl]-α-phenylbenzeneacetamide]	7.29
COC(C)(C(=O)NCCCN1CCN(c2cc(C)ccc2C)CC1)c1ccccc1 (racemic) [Compound 51, (±)-N-[3-{4-(2,5-dimethylphenyl)-1-piperazinyl}-propyl]-α-methoxy-α-methyl-benzeneacetamide]	6.96
CCCc1ccccc1N1CCN(CCCNC(=O)C(O)(c2ccccc2)c2ccccc2)CC1 (racemic) [Compound 56, (±)-N-[3-{4-(2-(propyl)-phenyl)-1-piperazinyl}-propyl]-α-hydroxy-α-phenyl-benzeneacetamide]	7.60
Cc1ccc(C)c(N2CCN(CCCNC(=O)C(NC(=O)Cc3ccccc3)c3ccccc3)CC2)c1 (racemic) [Compound 49, (±)-N-[3-{4-(2,5-dimethylphenyl)-1-piperazinyl}-propyl]-α-benzylcarbonylamino-benzeneacetamide]	7.30

Continued, values first:

pKi	Structure (SMILES)
7.13	CCC(CC)(C(=O)NCCCN1CCN(c2cc(C)ccc2C)CC1)c1ccccc1 [Compound 26, N-[3-{4-(2,5dimethylphenyl)-1-piperazinyl}-propyl]-2-ethyl-2-phenyl-butyramide]
7.36	Cc1ccc(C)c(N2CCN(CCCNC(=O)C(C)(O)c3ccc(Cl)cc3)CC2)c1 (racemic) [Compound 30, (±)-4-chloro-N-[3-{4-(2,5-dimethylphenyl)-1-piperazinyl}-propyl]-α-hydroxy-α-methyl-benzeneacetamide]
7.26	COc1ccccc1N1CCN(CCCNC(=O)C(c2ccccc2)C2CCCCC2)CC1 (racemic) [Compound 18, (±)-α-cyclohexyl-N-[3-{4-(2-methoxyphenyl)-1-piperazinyl}-propyl]-benzeneacetamide]
7.54	Cc1ccc(C)c(N2CCN(CCCNC(=O)C(C)(O)c3ccc4ccccc4c3)CC2)c1 (racemic) [Compound 43, (±)-N-[3-{4-(2,5-dimethylphenyl)-1-piperazinyl}-propyl]-α-hydroxy-α-methyl-2-naphthaleneacetamide]
7.42	COc1ccc(C(C)(O)C(=O)NCCCN2CCN(c3cc(C)ccc3C)CC2)cc1 (racemic) [Compound 40, (±)-N-[3-{4-(2,5-dimethylphenyl)-1-piperazinyl}-propyl]-α-hydroxy-α-methyl-4-methoxy-benzeneacetamide]
7.14	Cc1ccc(C)c(N2CCN(CCCNC(=O)C(C)(O)c3cccc(-c4ccccc4)c3)CC2)c1 (racemic) [Compound 44, (±)-N-[3-{4-(2,5-dimethylphenyl)-1-piperazinyl}-propyl]-α-hydroxy-α-methyl-1,1'-biphenyl-3-acetamide]
7.19	Cc1ccc(C)c(N2CCN(CCCNC(=O)C(c3ccc(Cl)cc3)c3ccc(Cl)cc3)CC2)c1 [Compound 21, 4-chloro-a-(4-chlorophenyl)-N-[3-{4-(2,5-dimethylphenyl)-1-piperazinyl}-propyl]-benzeneacetamide]
7.35	COc1ccc(CC(C)(O)C(=O)NCCCN2CCN(c3cc(C)ccc3C)CC2)cc1 (racemic) [Compound 34, (±)-N-[3-{4-(2,5-dimethylphenyl)-1-piperazinyl}-propyl]-2-hydroxy-2-methyl-4-methoxy-benzenepropionamide]
6.77	CCC(O)c1ccccc1N1CCN(CCCNC(=O)C(c2ccccc2)c2ccccc2)CC1 (racemic) [Compound 36, (±)-N-[3-{4-(2-(1-hydroxypropyl)-phenyl)-1-piperazinyl}-propyl]-α-phenyl-benzeneacetamide]
7.01	Cc1ccc(C)c(N2CCN(CCCNC(=O)C(C)(c3ccccc3)c3ccccc3)CC2)c1 [Compound 23, N-[3-{4-(2,5-dimethylphenyl)-1-piperazinyl}-propyl]-α-methyl-α-phenyl-benzeneacetamide]
7.40	Cc1ccc(C)c(N2CCN(CCCNC(=O)C(NS(C)(=O)=O)c3ccccc3)CC2)c1 (racemic) [Compound 33, (±)-N-[3-{4-(2,5-dimethylphenyl)-1-piperazinyl}-propyl]-α-(methylsulphonylamino)-benzeneacetamide]
7.17	Cc1ccc(C)c(N2CCN(CCCNC(=O)C(C)(O)c3ccccc3Cl)CC2)c1 (racemic) [Compound 29, (±)-2-chloro-N-[3-{4-(2,5-dimethylphenyl)-1-piperazinyl}-propyl]-α-hydroxy-α-methyl-benzeneacetamide]
7.44	CCCCC(O)(C(=O)NCCCN1CCN(c2cc(C)ccc2C)CC1)c1ccccc1 (racemic) [Compound 28, (±)-N-[3-{4-(2,5-dimethylphenyl)-1-piperazinyl}-propyl]-2-hydroxy-2-phenyl-hexanamide]
7.57	Cc1ccc(C(C)(O)C(=O)NCCCN2CCN(c3cc(C)ccc3C)CC2)cc1 (racemic) [Compound 41, (±)-N-[3-{4-(2,5-dimethylphenyl)-1-piperazinyl}-propyl]-α-hydroxy-α-methyl-4-methyl-benzeneacetamide]
7.16	CCSC(C(=O)NCCCN1CCN(c2cc(C)ccc2C)CC1)(c1ccccc1)c1ccccc1 [Compound 24, N-[3-{4-(2,5dimethylphenyl)-1-piperazinyl}-propyl]-α-ethylthio-α-phenyl-benzeneacetamide]
7.29	Cc1ccc(C)c(N2CCN(CCCNC(=O)C(N)c3ccccc3)CC2)c1 (racemic) [Compound 32, (±)-a-amino-N-[3-{4-(2,5-dimethylphenyl)-1-piperazinyl}-propyl]-benzeneacetamide]
6.55	Cc1ccc(C)c(N2CCN(CCCNC(=O)C(C)(C)O)CC2)c1 (racemic) [Compound 54, (±)-N-[3-{4-(2,5-dimethylphenyl)-1-piperazinyl}-propyl]-2-hydroxy-2-methyl-propionamide]
